Measurements taken from PMC7482845, “G10 is a direct activator of human STING” (PLoS ONE, 2020).

Assays:
[1] = target: T1, R232 variant of human STING (Homo sapiens, UniProt Q86WV6, H232R); assay: Luciferase (ISRE.ISG reporter) assay in HEK293T cells stably expressing R232 hSTING; assay type: cell-based; settings: for EC50: HEK293T cells expressing R232 hSTING, luciferase reporter, read-out: HEK.R232 EC50; for activity against R232 STING, in words: HEK.R232 cellular assay
T1 construct: the ER fraction from R232.STING transfected HEK293T cells which contained full length STING
T1 sequence (Q86WV6 whole entry H232R): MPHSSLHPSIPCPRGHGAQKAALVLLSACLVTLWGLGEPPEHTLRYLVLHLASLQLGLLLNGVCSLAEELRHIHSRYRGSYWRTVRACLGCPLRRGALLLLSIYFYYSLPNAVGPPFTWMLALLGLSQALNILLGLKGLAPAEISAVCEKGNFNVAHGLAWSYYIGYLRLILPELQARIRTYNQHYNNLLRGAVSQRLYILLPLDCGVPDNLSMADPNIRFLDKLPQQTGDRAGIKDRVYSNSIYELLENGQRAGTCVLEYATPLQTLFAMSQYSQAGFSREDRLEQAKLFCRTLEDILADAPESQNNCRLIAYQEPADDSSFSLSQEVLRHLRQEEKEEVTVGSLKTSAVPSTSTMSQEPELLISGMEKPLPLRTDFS
Text: (§1) • a) Stable STING expressing cells. Stable HEK293T STING-expressing cell lines were generated using plasmids purchased from Invivogen, CA, USA, that contain STING cDNA cloned into the pUNO-1 vector under the hEF1-HTLV promoter as well as the Blasticidin selection cassette. The human STING plasmids corresponding to the R232, H232 and HAQ variants were directly procured from Invivogen while the AQ and Q variants were created by mismatch PCR using cDNA from HAQ.STING and R232.STING variants respectively. These vectors were individually transfected into HEK293T cells using Lipofectamine (Invitrogen) and transfected cells were expanded under Blasticidin selection. These cells were further subjected to clonal selection using the limiting dilution method to obtain clonally pure populations of HEK293T cells expressing each of the five human STING variants. Clones with minimal ligand independent activation of STING were chosen for cellular experiments. • b) N-His R232.hSTING HEK293T cells. HEK293T cells stably expressing N-His R232.hSTING were generated by the following described method. N-His R232.hSTING.pcDNA Myc B plasmid was transfected into HEK293T cells using Lipofectamine reagent (Invitrogen) and the transfected cells were selected under Hygromycin. Stably STING expressing HEK293T cells thus selected were further subjected to single cell clonal selection using the limiting dilution method to obtain a clonally pure population of HEK293T cells expressing the human R232 STING variant.
[…] clonally selected HEK293T-hSTING-Luciferase cells or control HEK293T-Luciferase cells were seeded in 384-well plates in growth medium and stimulated with known STING agonists or novel compounds. […]

HAQ STING (THP-1 cells) = target: T2, HAQ STING (THP-1 cells) (Homo sapiens, UniProt Q86WV6, G230A/R293Q/R71H); assay: THP1 cellular assay (EC50); assay type: cell-based; settings: for THP-1 EC50 / EC50: THP-1 cells (HAQ STING); for activation of THP1 cells, in words: THP1 cellular assay
T2 construct: THP1 cells constitutively express the HAQ variant of human STING; host or cells: THP-1
T2 sequence (Q86WV6 whole entry R71H/G230A/R293Q): as the sequence (Q86WV6 whole entry H232R) above, with R71H, G230A, R232H, R293Q counted along it

[2] = target: T3, STING in human tumor lines (Homo sapiens, UniProt Q86WV6); assay: Phosphorylation of STING in human tumor lines; assay type: cell-based; settings: S7 Fig
T3 construct: endogenous in cells
T3 sequence (Q86WV6 whole entry): as the sequence (Q86WV6 whole entry H232R) above, with R232H counted along it

[3] = target: T4, recombinant CTT domain of R232 STING (Homo sapiens, UniProt Q86WV6, H232R); assay: In vitro kinase assay, recombinant CTT domain of R232 STING plus recombinant TBK1; assay type: biochemical; settings: STING source not stated (S3 Fig)
T4 construct: corresponding to the soluble domain of STING (138 to 379 aa) protein; purchased Cayman Chemicals (STING); Invitrogen (TBK1) 22816 (STING); A31514 (TBK1)
T4 sequence (Q86WV6 138-379 H232R): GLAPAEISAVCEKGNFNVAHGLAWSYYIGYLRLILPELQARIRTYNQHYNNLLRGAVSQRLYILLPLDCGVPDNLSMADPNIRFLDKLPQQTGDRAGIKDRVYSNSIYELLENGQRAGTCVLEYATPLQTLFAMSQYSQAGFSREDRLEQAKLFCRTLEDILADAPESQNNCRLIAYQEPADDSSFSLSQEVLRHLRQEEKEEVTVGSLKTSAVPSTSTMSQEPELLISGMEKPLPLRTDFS
Experimental: 50ng of recombinant STING protein (Cayman Chemicals Cat# 22816) corresponding to the soluble domain of STING (138 to 379 aa) protein or 1 μl of ER fraction (8mg/ml) containing full length STING from R232.hSTING was incubated with 20 ng of recombinant full length TBK1 protein (Invitrogen, Cat# A31514) in the presence/absence of test compound in 20 μl reaction buffer (50mM Tris-HCl of pH 7.4, 100mM NaCl, 5mM MgCl2, 5mM MnCl2, 10% glycerol, 0.2mM Na3VO4, 20mM β-glycero-PO4, 0.5mM ATP) and 0.01% BSA at 30 °C for 45 min. The reaction was quenched by addition of 2 μl of 10X EDTA to a final concentration of […]. Samples were treated with 4x gel loading dye followed by electrophoresis in 10% SDS-PAGE gels and transferred to Immobilon-P membranes (Millipore). […] Anti-rabbit HRP labelled secondary antibody (Abcam) and Clarity Max™ western ECL substrate (Biorad, Cat# 1705062) were used for visualization of bands using a BioRad XRS plus imager.

[4] = system: Human STING variants (HEK293T cells); assay: Phosphorylation of STING variants overexpressed in HEK293T cells (Compound 8); assay type: cell-based; settings: HEK293T cells (S5 Fig)
Experimental: 5 x 10^5 cells were seeded in 24-well plates in 500 μl growth medium and stimulated with novel compounds at 10μM. After 2 hours of treatment cells were harvested by centrifugation and cell pellets were lysed in RIPA buffer (20mM Tris-Cl, 150mM NaCl, 0.5mM EDTA, 1% NP40, 0.05% SDS) containing 1x phosphatase inhibitor cocktail 3 (Sigma) and 1x protease inhibitor (Roche) to extract the soluble fraction of protein. 10 μg of extracted protein was electrophoresed in 10% SDS-PAGE gels and transferred onto Immobilon-P membranes (Millipore). […] Anti-rabbit HRP label secondary antibody (Abcam) and Clarity Max™ western ECL substrate (Biorad—cat# 1705062) were used for visualization of bands using a BioRad XRS plus imager.

[5] = system: multiple STING variants overexpressed in HEK293T cells; assay: Luciferase reporter assay of STING variants overexpressed in HEK293T cells (Compound 8); assay type: cell-based, human; settings: HEK293T cells (S4 Fig)
Text: as §1, with “HEK293T cells stably expressing N-His R232.hSTING were generated by the following described method. N-His R232.hSTING.pcDNA Myc B plasmid was transfected into HEK293T cells using Lipofectamine reagent (Invitrogen) and the transfected cells were selected under Hygromycin. Stably STING expressing HEK293T cells thus selected were further subjected to single cell clonal selection using the limiting dilution method to obtain a clonally pure population of HEK293T cells expressing the human R232 STING variant.” left out
5 x 10^5 clonally selected HEK293T-hSTING-Luciferase cells or control HEK293T-Luciferase cells were seeded in 384-well plates in growth medium and stimulated with known STING agonists or novel compounds. Supernatants were removed after 20 hours of treatment and secretory reporter gene activity was measured using the Quanti-Luc detection system (Invivogen) on a Spectramax i3X luminometer.

STING in human PBMCs = target: T5, STING in human PBMCs (Homo sapiens, UniProt Q86WV6); assay: Phosphorylation of STING in human PBMCs; assay type: cell-based; settings: multiple donors (S6 Fig)
T5 construct: endogenous in cells; host or cells: human PBMCs, multiple donors
T5 sequence (Q86WV6 whole entry): as the sequence (Q86WV6 whole entry H232R) above, with R232H counted along it

human STING = system: human STING; parameters: method as in PMID 23585680; settings: any variant of human STING; cited from earlier work

SMILES	EC50 [1] [nM]	activation of THP1 cells, in words (HAQ STING (THP-1 cells))	EC50 (HAQ STING (THP-1 cells)) [nM]	activity against R232 STING, in words [1]	other results
O=C(NCc1ccco1)c1ccc2c(c1)N(Cc1c(Cl)cccc1Cl)C(=O)CS2 [Compound 1, 4-(2,6-Dichlorobenzyl)-N-(furan-2-ylmethyl)-3-oxo-3,4-dihydro-2H-benzo[b][1,4]thiazine-6-carboxamide]	2160				THP-1 EC50 (HAQ STING (THP-1 cells)): Nil @ 30uM
O=C(NCc1ccco1)c1ccc2c(c1)N(Cc1c(F)cccc1F)C(=O)CS2 [Compound 2, 4-(2,6-Difluorobenzyl)-N-(furan-2-ylmethyl)-3-oxo-3,4-dihydro-2H-benzo[b][1,4]thiazine-6-carboxamide]	3970				THP-1 EC50 (HAQ STING (THP-1 cells)): Nil @ 30uM
O=C(NCc1ccco1)c1ccc2c(c1)N(Cc1ccccc1)C(=O)CS2 [Compound 3, 1-Benzyl-N-(furan-2-ylmethyl)-2-oxo-2,3-dihydro-1H-benzo[b][1,4]thiazine-7-carboxamide]	9130				THP-1 EC50 (HAQ STING (THP-1 cells)): Nil @ 30uM
O=C(NCc1ccc(F)cc1F)c1ccc2c(c1)N(Cc1c(F)cccc1Cl)C(=O)CS2 [Compound 4, 4-(2-Chloro-6-fluorobenzyl)-N-(2,4-difluorobenzyl)-3-oxo-3,4-dihydro-2H-benzo[b][1,4]thiazine-6-carboxamide]	292	very weak activation	> 30000		
O=C(NCc1c(F)cc(F)cc1F)c1ccc2c(c1)N(Cc1c(F)cccc1Cl)C(=O)CS2 [Compound 5, 4-(2-Chloro-6-fluorobenzyl)-3-oxo-N-(2,4,6-trifluorobenzyl)-3,4-dihydro-2H-benzo[b][1,4]thiazine-6-carboxamide]	188	very weak activation	> 10000		
COc1cc(F)c(CN2C(=O)CSc3ccc(C(=O)NCc4c(F)cc(F)cc4F)cc32)c(F)c1 [Compound 6, 4-(2,6-Difluoro-4-methoxybenzyl)-3-oxo-N-(2,4,6-trifluorobenzyl)-3,4-dihydro-2H-benzo[b][1,4]thiazine-6-carboxamide]	160		> 10000	sharp increases in activity	
O=C(NCc1c(F)cc(F)cc1F)c1ccc2c(c1)N(Cc1c(F)cc(O)cc1F)C(=O)CS2 [Compound 7, 4-(2,6-Difluoro-4-hydroxybenzyl)-3-oxo-N-(2,4,6-trifluorobenzyl)-3,4-dihydro-2H-benzo[b][1,4]thiazine-6-carboxamide]	71.6	significant activity	1380	sharp increases in activity	
CC1Sc2ccc(C(=O)NCc3c(F)cc(F)cc3F)cc2N(Cc2c(F)cccc2Cl)C1=O (stereo not shown) [Compound 8, 4-(2-Chloro-6-fluorobenzyl)-2-methyl-3-oxo-N-(2,4,6-trifluorobenzyl)-3,4-dihydro-2H-benzo[b][1,4]thiazine-6-carboxamide]	122	sub-micromolar activity	944	sub-micromolar activity	phosphorylation of STING in human tumor lines [2]: phosphorylated STING; activity in the cell-free pSTING assay [3]: confirmed activity; phosphorylation of human STING variants [4]: phosphorylated; activation of multiple STING variants, luciferase reporter assay [5]: activated; phosphorylation of STING in human PBMCs (STING in human PBMCs): phosphorylated STING
CC1Sc2ccc(C(=O)NCc3c(F)cc(F)cc3F)cc2N(Cc2c(F)ccc(O)c2Cl)C1=O (stereo not shown) [Compound 9, 4-(2-Chloro-6-fluoro-3-hydroxybenzyl)-2-methyl-3-oxo-N-(2,4,6-trifluorobenzyl)-3,4-dihydro-2H-benzo[b][1,4]thiazine-6-carboxamide]	96	sub-micromolar activity	412	sub-micromolar activity	
CC1Sc2ccc(C(=O)NCc3c(F)cc(F)cc3F)cc2N(Cc2cc(F)cc(F)c2)C1=O (stereo not shown) [Compound 10]	421		~6000		
CC1Sc2ncc(C(=O)NCc3cc4ccccc4o3)cc2N(Cc2cc(F)cc(F)c2)C1=O (stereo not shown) [Compound 12, N-(Benzofuran-2-ylmethyl)-1-(3,5-difluorobenzyl)-3-methyl-2-oxo-2,3-dihydro-1H-pyrido[2,3-b][1,4]thiazine-7-carboxamide]	91		~8000		
Cc1ccc2c(=O)c3cccc(CC(=O)O)c3oc2c1C [DMXAA, 5,6 dimethyl xanthenone 4-acetic acid]					activation of human STING variants (human STING): does not activate
